According to US20070117743A1, “New antitumoral compounds” (priority 2003, published 2007):

Columns and labels:
Format in all cases: cell-based, human
Conditions in all cases: 48 hours exposure, SRB
[1] = tested on: LoVo-Dox; experiment: SRB colorimetric assay of cell growth and viability, LoVo-Dox
Method in brief: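 Absorbance at 490 nm of Tris-solubilized sulforhodamine B gives the read-out after cells are fixed with cold 50% TCA for 60 min at 4° C. Compound exposure lasts 48 hours over 10 to 10^−8 μg/mL. Growth inhibition, total growth inhibition and lethal concentration are calculated from triplicate wells.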

[2] = tested on: LNCaP; experiment: SRB colorimetric assay of cell growth and viability, LNCaP
Excerpt: The finality of this assay is to interrupt the growth of a “in vitro” tumor cell culture by means a continued exhibition of the cells to the sample to be testing.
This form of the assay employs 96 well cell culture microplates of 9 mm diameter (Faircloth, 1988; Mosmann, 1983). Most of the cell lines are obtained from American Type Culture Collection (ATCC) derived from different human cancer types.
Cells are maintained in RPMI 1640 10% FBS, supplemented with 0.1 g/l penicillin and 0.1 g/l streptomycin sulfate and then incubated at 37° C., 5% CO2 and 98% humidity. For the experiments, cells were harvested from subconfluent cultures using trypsin and resuspended in fresh medium before plating.
Cells are seeded in 96 well microtiter plates, at 5×10^3 cells per well in aliquots of 195 μL medium, and they are allowed to attach to the plate surface by growing in drug free medium for 18 hours. Afterward, samples are added in aliquots of 5 μL in a ranging from 10 to 10^−8 μg/mL, dissolved in DMSO:EtOH:PBS (0.5:0.5:99). After 48 hours exposure, the antitumor effect are measured by the SRB methodology: cells are fixed by adding 50 μL of cold 50% (wt/vol) trichloroacetic acid (TCA) and incubating for 60 minutes at 4° C. Plates are washed with deionized water and dried. One hundred μL of SRB solution (0.4% wt/vol in 1% acetic acid) is added to each microtiter well and incubated for 10 minutes at room temperature. Unbound SRB is removed by washing with 1% acetic acid. Plates are air dried and bound stain is solubilized with Tris buffer. Optical densities are read on a automated spectrophotometric plate reader at a single wavelength of 490 nm.
The values for mean+/− SD of data from triplicate wells are calculated. Some parameters for cellular responses can be calculated: GI=growth inhibition, TGI=total growth inhibition (cytostatic effect) and LC=cell killing (cytotoxic effect).

[3] = tested on: K-562; experiment: SRB colorimetric assay of cell growth and viability, K-562
[4] = tested on: SK-MEL-28; experiment: SRB colorimetric assay of cell growth and viability, SK-MEL-28
[5] = tested on: IGROV-1; experiment: SRB colorimetric assay of cell growth and viability, IGROV-1
[6] = tested on: LoVo; experiment: SRB colorimetric assay of cell growth and viability, LoVo
[7] = tested on: PANC-1; experiment: SRB colorimetric assay of cell growth and viability, PANC-1
[8] = tested on: HT-29; experiment: SRB colorimetric assay of cell growth and viability, HT-29
[9] = tested on: IGROV-ET; experiment: SRB colorimetric assay of cell growth and viability, IGROV-ET
[10] = tested on: DU-145; experiment: SRB colorimetric assay of cell growth and viability, DU-145
[11] = tested on: HeLa; experiment: SRB colorimetric assay of cell growth and viability, HeLa
[12] = tested on: A-549; experiment: SRB colorimetric assay of cell growth and viability, A-549
[13] = tested on: HeLa-APL; experiment: SRB colorimetric assay of cell growth and viability, HeLa-APL

**Q.** For `C/C=C1\NC(=O)[C@H](Cc2ccccc2)NC(=O)[C@@H](C(C)C)NC(=O)[C@@H]([C@@H](C)CC)NC(=O)[C@H](NC(=O)[C@H](NC(=O)[C@H](CCCC[N+](C)(C)C)NC(=O)[C@H]2CCCN2C(=O)[C@H](NC(=O)[C@@H](NC(=O)[C@@H](NC(=O)[C@H](NC(=O)CC[C@@H](C)CC)C(C)C)[C@@H](C)O)C(C)C)C(C)C)[C@@H](C)CC)[C@@H](C)OC(=O)[C@H](C(C)C)NC1=O` [Compound 93, [N^ε(Me)3-Lys^8, (4S)-MeHex^14]-KF], which GI50 [1] is on record?
**A.** 78.2 nM

**Q.** What about the “TGI LOVO-DOX” value [1] of the same compound?
**A.** 1.82E−07 Molar

**Q.** What about the CC50 ([1]; read-out: LC50 LOVO-DOX) of the same compound?
**A.** 426 nM

**Q.** And the “TGI LN-caP” value [2]?
**A.** 2.16E−06 Molar

**Q.** What about the GI50 ([2]; read-out: GI50 LN-caP) of the same compound?
**A.** 795 nM

**Q.** And the CC50 ([2]; read-out: LC50 LN-caP)?
**A.** 5880 nM

**Q.** And the GI50 [3]?
**A.** 1490 nM

**Q.** And the “TGI K-562” value [3]?
**A.** 2.72E−06 Molar

**Q.** And the CC50 ([3]; read-out: LC50 K-562)?
**A.** 4940 nM

**Q.** What about the GI50 [4] of the same compound?
**A.** 320 nM

**Q.** What about the “TGI MEL-28” value [4] of the same compound?
**A.** 9.51E−07 Molar

**Q.** What about the CC50 ([4]; read-out: LC50 MEL-28) of the same compound?
**A.** 2600 nM

**Q.** And the GI50 [5]?
**A.** 214 nM

**Q.** And the LC50 (concentration causing 50% net cell killing) [5]?
**A.** 866 nM

**Q.** And the “TGI IGROV” value [5]?
**A.** 3.90E−08 Molar

**Q.** What about the GI50 [6] of the same compound?
**A.** 80.8 nM

**Q.** What about the “TGI LOVO” value [6] of the same compound?
**A.** 2.08E−07 Molar

**Q.** And the CC50 ([6]; read-out: LC50 LOVO)?
**A.** 537 nM

**Q.** What about the GI50 [7] of the same compound?
**A.** 1110 nM

**Q.** What about the “TGI PANC-1” value [7] of the same compound?
**A.** 2.08E−06 Molar

**Q.** What about the CC50 ([7]; read-out: LC50 PANC-1) of the same compound?
**A.** 3900 nM

**Q.** What about the “TGI HT-29” value [8] of the same compound?
**A.** 2.72E−07 Molar

**Q.** And the GI50 ([8]; read-out: GI50 HT-29)?
**A.** 168 nM

**Q.** And the CC50 ([8]; read-out: LC50 HT-29)?
**A.** 439 nM

**Q.** And the GI50 [9]?
**A.** 266 nM

**Q.** And the “TGI IGROV-ET” value [9]?
**A.** 7.17E−07 Molar

**Q.** And the CC50 ([9]; read-out: LC50 IGROV-ET)?
**A.** 2490 nM

**Q.** What about the GI50 [10] of the same compound?
**A.** 6.21 nM

**Q.** What about the LC50 (concentration causing 50% net cell kill) [10] of the same compound?
**A.** 44 nM

**Q.** What about the “TGI DU-145” value [10] of the same compound?
**A.** 1.66E−08 Molar

**Q.** And the GI50 [11]?
**A.** 491 nM

**Q.** What about the “TGI HELA” value [11] of the same compound?
**A.** 1.25E−06 Molar

**Q.** What about the CC50 ([11]; read-out: LC50 HELA) of the same compound?
**A.** 3250 nM

**Q.** What about the “TGI A-549” value [12] of the same compound?
**A.** 6.97E−07 Molar

**Q.** And the GI50 ([12]; read-out: GI50 A-549)?
**A.** 186 nM

**Q.** What about the CC50 ([12]; read-out: LC50 A-549) of the same compound?
**A.** 2440 nM

**Q.** What about the GI50 [13] of the same compound?
**A.** 651 nM

**Q.** What about the “TGI HELA-APL” value [13] of the same compound?
**A.** 1.43E−06 Molar

**Q.** And the CC50 ([13]; read-out: LC50 HELA-APL)?
**A.** 3150 nM
